Data from US9488914B2, “Fluorine-containing sulfonic acid salt, fluorine-containing sulfonic acid salt resin, resist composition, and pattern forming method using same” (Central Glass Company, Limited, priority 2012, dated 2016).

test: Solubility of polymerizable fluorine-containing sulfonic acid onium salts in PGMEA; details: amount (g) of polymerizable monomer dissolved in 100 g of PGMEA

Going from `C=C(COCC(F)(F)S(=O)(=O)O)C(=O)OC1CCOC1=O` (stereo not shown) [PAG-1, Triphenylsulfonium 2-[2-(2-oxotetrahydrofuran-3-yloxycarbonyl)-2-methyleneethoxy]-1,1-difluoroethanesulfonate] to `C=C(COCCC(F)(F)C(F)(F)S(=O)(=O)[O-])C(=O)OC1CC2CC1CC2CC(OC(C)=O)(C(F)(F)F)C(F)(F)F.c1ccc(-[s+]2c3ccccc3c3ccccc32)cc1` (stereo not shown) [PAG-2, Phenyldibenzothiophenium 4-[2-(3,3,3-trifluoro-2-acetyloxy-2-(trifluoromethyl)propyl)bicyclo[2.2.1]hepta-2-yloxycarbonyl-2-methyleneethoxy]-1,1,2,2-tetrafluorobutanesulfonate], the Solubility rises from 38 g/100 g to 50 g/100 g.

First: C=C(COCC(F)(F)S(=O)(=O)O)C(=O)OC1CC(C(O)(C(F)(F)F)C(F)(F)F)CC(C(O)(C(F)(F)F)C(F)(F)F)C1 (stereo not shown) [PAG-3, Diphenyl-p-tolylsulfonium 2-[2-(3,5-bis(hexafluoro-2-hydroxypropan-2-yl)cyclohexyloxycarbonyl)-2-methyleneethoxy]-1,1-difluoroethanesulfonate]
Second: C=C(COCCC(F)(F)C(F)(F)S(=O)(=O)O)C(=O)Oc1ccc2sc(=O)oc2c1 [PAG-8]
The Solubility of the first is higher: 55 g/100 g for the first, 42 g/100 g for the second.

First: C=C(COC(CCCC)C(F)(F)S(=O)(=O)[O-])C(=O)Oc1ccc(C(O)(C(F)(F)F)C(F)(F)F)cc1.Cc1ccc([S+](c2ccc(C)cc2)c2ccc(C)cc2)cc1 (stereo not shown) [PAG-11, Tri-p-tolylsulfonium 2-[4-(2,2,2-trifluoro-1-hydroxy-1-(trifluoromethyl)ethylphenoxycarbonyl)-2-methylene-ethoxy]-1,1-difluorohexanesulfonate]
Second: C=C(COCCCC(F)(F)S(=O)(=O)O)C(=O)OC1CC2CC1C1COC(=O)C21 (stereo not shown) [PAG-15, [(4-trifluoromethyl)phenyl]diphenylsulfonium 4-(4-oxa-tricyclo[5.2.1.0(2,6)]decan-3-on-8-yloxycarbonyl-2-methylene-ethoxy)-1,1-difluorobutanesulfonate]
The Solubility of the first is higher: 45 g/100 g for the first, 42 g/100 g for the second.

Work on “Triphenylsulfonium 2-[2-(1,1,1-trifluoro-2-hydroxy-2-(trifluoromethyl)penta-5-yloxycarbonyl)-2-methyleneethoxy]-1,1-difluoroethanesulfonate [PAG-13]” yielded a Solubility of 47 g/100 g.
